Assay [1] has as its system DU145 cells (Prostate cancer). The assay can be described thus: Growth inhibition of human tumor cell lines (MTT). Type of assay: cell-based. An excerpt:
(§1) FIG. 9 illustrates growth inhibition of human cell lines of non-hematopoietic malignancies by sodium stibogluconate and/or IFNα. Percentage of growth inhibition of WM9 (A), DU145 (B), MDA231 (C) and WiT49-N1 (D) in the absence or presence of various amounts of sodium stibogluconate and/or IFNα (1,000 u/ml) in day 6 cultures as measured by MTT assays.

Assay [2] relates to MDA231 cells (Breast cancer). Put plainly: Growth inhibition of human tumor cell lines (MTT). It is filed as cell-based.
Text: as §1

Another assay concerns the target T1, GST/SHP-1 fusion protein (Mus musculus, UniProt P29351).
T1 construct: made in house
Put plainly: Reversibility of SHP-1 inhibition (washing of bead-bound GST/SHP-1). It is filed as biochemical. The conditions noted are these: preincubated with inhibitor, then washed. From the text: The beads were then washed 3 times in Tris buffer or without washing prior to in vitro PTPase assays.

A further assay relates to DS cells (lymphoma). The assay can be described thus: Growth inhibition of human tumor cell lines (MTT). Type of assay: cell-based. The conditions noted are these: day 3; IFNα 1,000 u/ml. The procedure: FIG. 8 illustrates growth inhibition of human cell lines of hematopoietic malignancies by sodium stibogluconate and/or IFNα: A and B. Growth of DS and DR cells cultured in the absence or presence of various amounts of sodium stibogluconate and/or IFNα (1,000 u/ml) for 3 days was measured by MTT assays; C. Percentage of growth inhibition of DR cells calculated from data in B; D. Percentage of growth inhibition of DR cells by IFNα (1,000 u/ml) and various amounts of sodium stibogluconate in day 6 cultures measured by MTT assays; E. Percentage of growth inhibition of U266 cells by IFNα (1,000 u/ml) and various amounts of sodium stibogluconate in day 6 cultures as measured by MTT assays.

A further assay relates to WM9 cells (Melanoma). Put plainly: Growth inhibition of human tumor cell lines (MTT). It is filed as cell-based.
Text: as §1
FIG. 10 illustrates sodium stibogluconate augments both IFNα- and IFNβ-induced growth inhibition of WM9 cells. Percentage of growth inhibition of WM9 cells in the absence or presence of various amounts of sodium stibogluconate, IFNα and IFNβ in day 6 cultures as measured by MTT assays. The data illustrates that sodium seems to interact with IFNα and IFNβ in a synergistic manner in growth inhibition of WM9 cells. Data from MTT antiproliferative assays was expressed as percent control growth (PCG) of treated cells, compared to untreated cells (100%). Median effect analysis (inset graphs), similar to isobol analysis, defined drug interaction in the IFNα+sodium stibogluconate and the IFNβ+sodium stibogluconate combinations as synergistic at all doses tested, characterized by a combination index (CI) of less than 1. Additivity is indicated by CI=1, and antagonism occurs when CI>1. Fraction affected (fa)=(100−PCG)/100.
Drug Interaction Analysis. Median effect analysis, which provides the most general form of studying the interactions between drugs, was utilized to analyze the interaction between sodium stibogluconate and IFNα or IFNβ. Since details regarding the mode of IFN and sodium stibogluconate interaction are not fully understood, and whether or not they act in a mutually exclusive fashion, we chose the most general analysis available. Dose response curves were generated for each drug alone, and also the combinations. Median effect plots were generated, which determined m and Dm values for IFN alone, sodium stibogluconate alone, and the combination. The combination index (CI) was determined and plotted vs. fraction affected (FA). Data were analyzed in both modes, mutually exclusive and mutually nonexclusive. […]

The subject of assay [3] is Jak2 and Stat5 tyrosine phosphorylation. The assay can be described thus: IL-3-induced Jak2/Stat5 tyrosine phosphorylation in Baf3 cells. It is filed as cell-based, murine. The procedure: For induction of cellular protein phosphorylation by sodium stibogluconate or pervanadate, Baf3 cells were incubated in 0.1% FCS RPMI 1640 medium at 37° C. for 16 hours. The cells were then washed twice in RPMI 1640 medium and incubated with sodium stibogluconate or pervanandate (0.1 mM) for various times prior to termination by lysing cells in cold lysis buffer (50 mM Tris, pH 7.4; 150 mM NaCl; 0.2 mM Na3VO4; 20 mm NaF; 1% NP40; 2 mM PMSF; 20 μg/ml of aprotinin and 1 mM of sodium molybdic acid). To determine the effect of sodium stibogluconate or potassium antimonyl tartrate on IL-3-induced Jak/Stat phosphorylation, Baf3 cells were deprived of the growth factor for 16 hours in 0.1% FCS RPMI 1640 medium and then incubated with or without sodium stibogluconate or potassium antimonyl tartrate for 10 minutes. IL-3 was next added to the cell suspension and incubated for various times. The cells were then harvested and lysed in cold lysis buffer at 4° C. for 45 minutes. Total cell lysates (TCL) were separated in SDS-PAGE gels, blotted onto nitrocellulose membrane (Schleicher & Schuell), probed with specific antibodies and detected using an enhanced chemiluminescence kit (ECL, Amersham).
A functional role of SHP-1 in dephosphorylating the Jak family kinases during cytokine signaling has been documented. To determine whether sodium stibogluconate inhibits SHP-1 in vivo, the effect of the drug on IL-3-induced Jak2 tyrosine phosphorylation in Baf3 cells was examined. Baf3 cells deprived of IL-3 were incubated with or without the drug for 10 minutes and then stimulated with IL-3 for various times. IL-3 induced tyrosine phosphorylation of Jak2 and Stat5 in Baf3 cells in the presence or absence of the drug. However, the phosphotyrosine levels of Jak2 and Stat5 in the presence of the drug were about twice of those in cells without drug treatment as determined by densitometry analysis.

The subject of another assay is WM9 cells. The assay can be described thus: Apoptotic cells by Annexin V/propidium iodide assay (fluorescent microscopy). It is filed as cell-based, human. The conditions noted are these: 3 days, control 5%. As to the method:
Detection of apoptotic cells by Annexin V/propidium iodide assay. Annexin V staining of exposed membrane phospholipid phosphatidylserine (PS) was done using the Annexin V assay kit (Pharmingen, San Diego, Calif.). Briefly, U266 or WM9 cells were cultured in the 10% FCS RPMI 1640 medium in the absence or presence of sodium stibogluconate, IFNα, or both for 3 days. Cells were then washed in PBS twice and stained in binding buffer (10 mM Hepes, pH 7.4; 140 mM NaCl; 2.5 mM CaCl2) containing Annexin V-FITC and propidium iodide for 15 min. The reaction was stopped by adding 10 volumes of binding buffer and analyzed by FACS (Becton Dickinson Facsvantage) or fluorescent microscopy.

T1 sequence (P29351 whole entry, the tested form may be a part): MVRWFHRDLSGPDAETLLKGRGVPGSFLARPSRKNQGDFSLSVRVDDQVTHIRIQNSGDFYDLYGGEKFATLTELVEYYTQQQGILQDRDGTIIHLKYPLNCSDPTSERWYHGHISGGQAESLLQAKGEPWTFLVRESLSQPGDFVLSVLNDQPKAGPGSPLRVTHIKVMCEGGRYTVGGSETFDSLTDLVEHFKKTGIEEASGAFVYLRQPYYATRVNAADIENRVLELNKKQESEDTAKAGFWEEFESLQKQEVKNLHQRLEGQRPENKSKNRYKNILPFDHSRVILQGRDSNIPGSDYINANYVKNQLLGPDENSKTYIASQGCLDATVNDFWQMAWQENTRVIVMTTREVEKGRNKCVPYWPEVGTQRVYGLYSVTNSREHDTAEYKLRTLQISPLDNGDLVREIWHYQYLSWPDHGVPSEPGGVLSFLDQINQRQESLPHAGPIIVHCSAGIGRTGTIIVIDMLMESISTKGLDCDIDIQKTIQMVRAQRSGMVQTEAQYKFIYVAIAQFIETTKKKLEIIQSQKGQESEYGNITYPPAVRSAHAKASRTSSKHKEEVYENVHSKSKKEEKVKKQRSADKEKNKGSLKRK

For the compound `O.O.O.O.O.O.O.O.O.O=C([O-])[C@@H]1[O][Sb]2([O-])([O][Sb]34([OH])[O][C@H]([C@H](O)CO)[C@H]([O]3)[C@H](C(=O)[O-])[O]4)[O][C@H]([C@H](O)CO)[C@@H]1[O]2.[Na+].[Na+].[Na+]` [sodium stibogluconate], the “cell killing as a single agent” value in assay [1] (50 μg/ml and 100 μg/ml, day 6 culture) was “killed all cells”; in assay [2] (MDA231, 50 μg/ml and 100 μg/ml, day 6 culture), “killed all cells”; with WM9 cells (Melanoma) (WM9, 50 μg/ml and 100 μg/ml, day 6 culture), “killed all cells”. The “reversibility of SHP-1 inhibition” value on GST/SHP-1 fusion protein is on record as “stable complexes”. The “activity against DS cells” value in the assay with DS cells (lymphoma) is listed as “modest activity”. In addition, the “phosphotyrosine levels of Jak2 and Stat5 relative to cells without drug treatment” value in assay [3] (IL-3 stimulated, drug 10 minutes before, densitometry) is listed as “about twice”. For the same compound, the “Jak2/Stat5 tyrosine phosphorylation by the drug alone” value in assay [3] (without IL-3, 37° C. for 16 hours) is given as “failed to induce”.
On to IFNα, for which the “% of growth inhibition by day 6 (±s.d.)” value in assay [1] (SS 12.5 μg/ml, IFNα 1,000 u/ml, alone or combined) was 70 (5) %; in assay [2] (MDA231, SS 12.5 μg/ml, IFNα 1,000 u/ml, alone or combined), 79 (2) %; in the assay with WM9 cells (Melanoma) (WM9, SS 12.5 μg/ml, IFNα 1,000 u/ml, alone or combined), 58 (2) %. Further, the “growth inhibition of MDA231 breast cancer cells” value in assay [2] (drug at 25 μg/ml, agents individually or in combination) was determined as 79%. In addition, the “percentage of apoptotic cells” value with WM9 cells is recorded as 15%. Further, the “activity against DS cells” value in the assay with DS cells (lymphoma) is recorded as “almost completely eliminated”. In the assay on WM9 cells (Melanoma) (drug at 25-100 μg/ml, agents individually or in combination), the “growth inhibition of WM-9 melanoma cells” value came to 58%.
